Measurements taken from patent publication US8465983B1, “Detection and delivery systems utilizing supported lipid bilayers” (priority 2005, dated 2013).

Experiments:
[1] = Superquenching of MS-PPE by AQS, flow cytometry; details: 10 μM AQS, 2.5×10^5 MS-PPE in 200 μL PBS
Description: Bead suspensions of 2.5×10^5 PPE-coated microspheres in 200 μL PBS were analyzed using a FACScan flow cytometer (Becton-Dickinson, Sunnyvale, Calif.) with excitation at 488 nm. Fluorescence signals were acquired on the FL-1 channel (525 nm) using log amplification and analyzed with the CellQuest software.
The effect of the quencher, AQS, on the fluorescence of MS-PPE was determined by adding different concentrations of AQS and immediately reading the fluorescence by flow cytometry (FIG. 14A) or by fluorimetry (FIG. 14B). Adding AQS to the suspension of MS-PPE decreased the fluorescence emission intensity in an AQS-concentration-dependent manner (FIGS. 14A and B). The quenching of the MS-PPE as detected by both fluorimetry and flow cytometry, could be described by a conventional Stern-Volmer equation: Io/I=1+KSV[Q] where Io and I represent the fluorescence intensities in the absence and in presence of the AQS, and KSV is the Stern-Volmer quenching constant. However, the fluorimeter was not sensitive enough to detect the lower fluorescence (higher quenching) when AQS was added to MS-PPE at concentrations higher than 5 μM. The values of KSV obtained by flow cytometry and fluorimetry were 0.78×10^6 M^−1, and 0.79×10^6 M^−1, respectively. The correlation coefficient for the more sensitive flow cytometry was higher than that obtained by fluorimetry. […]

[2] = tested on: DMPG lipid bilayer supported on MS-PPE; assay: Superquenching flow cytometric assay for disruption of DMPG lipid bilayer supported on MS-PPE; type: biochemical; details: 10 μM AQS, no disruptor, real-time kinetics
Description: Lipid bilayers were disrupted by adding TRITON X-100 detergent to the bead suspension to a final concentration of 0.25% (w/v).
Bead suspensions of 2.5×10^5 DMPG-coated MS-PPE in 200 μL of PBS were analyzed using a FACScan flow cytometer (Becton-Dickinson, Sunnyvale, Calif.) with excitation at 488 nm. Fluorescence signals were acquired on FL-1 channel (525 nm) using log amplification and analyzed with the CellQuest software. Kinetic analysis of disruption of supported lipid bilayer by melittin was performed by acquiring real-time data with continuous mixing of samples (10^6 MS-PPE in 800 μl of PBS) using a magnetic stirrer. The raw data were analyzed using IDL Query software developed by Bruce Edwards (Cancer Center, University of New Mexico, Albuquerque, N. Mex.).
Because an anionic lipid was used to form a lipid bilayer around MS-PPE, it was expected that MLT will disrupt the DMPG lipid bilayer by such a detergent-like action. This was tested by adding 10 μM AQS to DMPG-coated MS-PPE followed by treatment with one of the following: TRITON X-100 detergent, synthetic MLT (sMLT), or natural MLT (nMLT) and immediately reading the fluorescence by flow cytometry. […] These histograms resemble the ones reported previously for MS-PPE, without a lipid coating, in absence and in presence of AQS.
From FIG. 18, the association constant (corresponding to the reciprocal of the point of half saturation) for nMLT and sMLT with DMPG were 5×10^6 M^−1 and 1.7×10^6 M^−1, respectively. […] Lower concentrations of nMLT, in comparison to sMLT, were required to disrupt the DMPG lipid bilayer. This might be attributed to the fact that nMLT contains some phospholipase A2 (PLA2) as a contaminant. PLA2 has a high affinity for anionic phospholipids, with an association constant of 0.5×10^10 M^−1 (Kim et al., Anal. Chem. 250, 109-116 (1997)), which is about 3000 fold higher than that of MLT. Although PLA2 activity requires calcium, which is not present in the experimental system, it has been reported that even upon addition of EDTA to natural MLT, PLA2 maintains its activity, probably due to formation of a tight complex with calcium with PLA2 (Dempsey, C. E. Biochim. Biophys. Acta 1990, 1031, 143-161).
The kinetics of disruption of supported lipid bilayer by MLT were monitored by measuring real-time changes in fluorescence intensity by flow cytometry (FIG. 19). Suspensions of 10^6 DMPG-coated MS-PPE in 800 μL of PBS were treated with AQS at a final concentration of 10 μM, then with either sMLT, TRITON X-100 detergent, or no treatment. […] Treatment with sMLT in the absence of AQS led to an increase in normalized fluorescence (FIG. 19, trace A). This can be attributed to disruption of the lipid bilayer by sMLT, and is consistent with a reversal of the slight quenching of fluorescence caused by the formation of a DMPG lipid bilayer over MS-PPE. Addition of AQS alone to DMPG-coated MS-PPE (FIG. 19, trace C) led to a 20% reduction in fluorescence as reported earlier. Addition of TRITON X-100 detergent to DMPG-coated MS-PPE after the addition of AQS (first dip in trace E, FIG. 19) caused immediate decrease in fluorescence to ˜10% of its original value (second dip in trace E, FIG. 19). In contrast, addition of sMLT, after the addition of AQS, (FIG. 19, trace D) led to a gradual reduction of fluorescence intensity to ˜20% of the original value. Although MLT forms dimers at high concentrations (Dempsey, C. E. Biochim. Biophys. Acta 1990, 1031, 143-161), it is monomeric at the concentrations used in this study. On the other hand, TRITON X-100 detergent forms micelles at the concentration used in this study.

anionic phospholipids [3] = assay: Affinity of PLA2 for anionic phospholipids (Kim et al.); type: binding
anionic phospholipids [4] = details: Kim et al. 1997; cited from earlier work
[5] = tested on: cholesterol (10%, molar ratio) containing lipid membrane on porous particles; assay: Release of dye from porous particles coated with cholesterol-containing lipid membrane by streptolysin-O; type: biochemical; details: even at low concentrations; 25° C. and 37° C.
Description: FIGS. 22A-B illustrate one aspect of the invention—drug and/or dye release from the present lipid-coated particles. FIG. 22A is a graph showing release of dye from porous particles (containing dye inside) where the particles are coated with a cholesterol (10%, molar ratio) containing lipid membrane. As increasing amounts of streptolysin-O are added (solid square symbols represent lower concentration than solid ovals), more dye is released. […] FIG. 22B illustrates how streptolysin-O can disrupt cholesterol-containing lipid bilayer membranes, leading to release of materials (e.g., drugs or antibiotics) enclosed within the membrane. Streptolysin-O is an anti-microbial protein that preferably binds to cholesterol and can disrupt cholesterol-containing membranes.

O=C1c2ccc(S(=O)(=O)O)cc2C(=O)c2ccc(S(=O)(=O)O)cc21 [AQS, 9,10-anthraquinone-2,6-disulfonic acid]
reduction in fluorescence (normalized mean channel fluorescence) [1]: 90% | reduction in fluorescence of DMPG-coated MS-PPE on addition of AQS alone [2]: 20%

PLA2: phospholipase A2, lipolytic enzyme, contaminant of natural melittin
association constant higher than that of MLT (anionic phospholipids [3]): about 3000 fold | association constant (anionic phospholipids [4]): 5e+09 M⁻¹

streptolysin-O: anti-microbial protein that preferably binds to cholesterol and can disrupt cholesterol-containing membranes
release of dye compared with control without streptolysin-O [5]: greater than observed for control
